Test results as given in article PMC12040169 (PLOS Biology, 2025).

Assay: in vitro
Settings: human, hela cells, % viability

Structure (SMILES): Cc1cc(C)n(C(=O)CCC(=O)Nc2cccc(Cl)c2C)n1 [CBK263851]
- viability at 28.5 h, 10 µM: 99.3%

Structure (SMILES): Cc1ccccc1C1NS(=O)(=O)NC1=N (centres unmarked) [CBK263852]
- viability at 28.5 h, 10 µM: 96.5%

Structure (SMILES): Nc1nnnn1/N=C/c1cc(Cl)cc(Cl)c1OCc1ccc(Cl)cc1Cl [CBK263853]
- viability at 28.5 h, 10 µM: 107%

Structure (SMILES): Nc1nnc(Cn2c(-c3nonc3N)nc3ccccc32)s1 [CBK263854]
- viability at 28.5 h, 10 µM: 117%

Structure (SMILES): NS(=O)(=O)c1ccc(NC(=O)CC2SC(=O)NC2=O)cc1 (centres unmarked) [CBK263855]
- viability at 28.5 h, 10 µM: 98.9%

Structure (SMILES): O=C(O)COc1ccc(C=C2C(=O)c3ccccc3C2=O)cc1Cl [CBK263857]
- viability at 28.5 h, 10 µM: 87.3%

Structure (SMILES): Cc1cc2nn(-c3ccccc3)nc2cc1NC(=O)c1ccc(-c2cccc([N+](=O)[O-])c2)o1 [CBK263859]
- viability at 28.5 h, 10 µM: 99.6%

Structure (SMILES): O=C(CSc1ccccn1)Nc1ccc2ccccc2c1 [CBK263860]
- viability at 28.5 h, 10 µM: 101%

Structure (SMILES): CN1CCN(c2ccc(S(=O)(=O)Nc3cc(C(=O)O)cc(C(=O)O)c3)cc2[N+](=O)[O-])CC1 [CBK263862]
- viability at 28.5 h, 10 µM: 96.8%

Structure (SMILES): Cc1ccc(-c2nc3ccccc3s2)cc1NC(=O)c1sc2ccccc2c1Cl [CBK263865]
- viability at 28.5 h, 10 µM: 93.9%

Structure (SMILES): COc1cc(CNC2CCCCC2)ccc1OCC(N)=O [CBK263866]
- viability at 28.5 h, 10 µM: 90.9%

Structure (SMILES): Cc1cccc(C2NS(=O)(=O)NC2=N)c1 (centres unmarked) [CBK263868]
- viability at 28.5 h, 10 µM: 98.3%

Structure (SMILES): O=C(O)C1C(c2ccccc2)C(C(=O)Oc2cccc3ccccc23)C1c1ccccc1 (centres unmarked) [CBK263869]
- viability at 28.5 h, 10 µM: 110%

Structure (SMILES): O=C(CN1C(=O)S/C(=C\C=C\c2ccccc2)C1=O)Nc1cccc2c1C(=O)c1ccccc1C2=O [CBK263870]
- viability at 28.5 h, 10 µM: 87.1%

Structure (SMILES): O=C(Nc1ccc2oc(-c3cccnc3)nc2c1)c1ccc(-c2ccccc2OC(F)(F)F)o1 [CBK263872]
- viability at 28.5 h, 10 µM: 86.5%

Structure (SMILES): CCOC(=O)C1=C(Nc2ccc([N+](=O)[O-])cc2)S/C(=C\c2ccc(O)c(OC)c2)C1=O [CBK263873]
- viability at 28.5 h, 10 µM: 89.3%

Structure (SMILES): CC(/C=C1\SC(=S)N(CCC(=O)Nc2ccc(O)c(C(=O)O)c2)C1=O)=C\c1ccccc1 [CBK263875]
- viability at 28.5 h, 10 µM: 107%

Structure (SMILES): N#C/C(=C\c1ccc(Oc2ccc(C(F)(F)F)cc2[N+](=O)[O-])cc1)c1nc2ccccc2[nH]1 [CBK263878]
- viability at 28.5 h, 10 µM: 92.4%

Structure (SMILES): COc1ccc(C(=O)Nc2ccc(S(=O)(=O)Nc3nccs3)cc2)cc1I [CBK263880]
- viability at 28.5 h, 10 µM: 92.7%

Structure (SMILES): CCCN1C(=O)N(CO)C2C1N(CO)C(=O)N2CCC (centres unmarked) [CBK263882]
- viability at 28.5 h, 10 µM: 101%

Structure (SMILES): COc1ccc(CC(=O)Nc2ccc(Nc3ccccc3)cc2)cc1 [CBK263884]
- viability at 28.5 h, 10 µM: 114%

Structure (SMILES): CC1CCN(c2ccc(S(=O)(=O)Nc3cc(C(=O)O)cc(C(=O)O)c3)cc2[N+](=O)[O-])CC1 [CBK263886]
- viability at 28.5 h, 10 µM: 94.8%

Structure (SMILES): COc1ccc(NCC(=O)N/N=C(\C)c2ccccc2O)cc1 [CBK263887]
- viability at 28.5 h, 10 µM: 86.3%

Structure (SMILES): CCCCc1c(C)nc2ccc(OC)cc2c1SCCC(=O)O [CBK263888]
- viability at 28.5 h, 10 µM: 98.1%

Structure (SMILES): Cc1cc(C)nc(N/C(=N/C(=O)Cc2ccccc2)N2CCC(C(N)=O)CC2)n1 [CBK263889]
- viability at 28.5 h, 10 µM: 107%

Structure (SMILES): CCCc1c(C)nc2c(OC)cccc2c1SCCC(=O)O [CBK263890]
- viability at 28.5 h, 10 µM: 122%

Structure (SMILES): COc1cc(/C=C(\C#N)c2nc3ccccc3n2C)cc([N+](=O)[O-])c1O [CBK263893]
- viability at 28.5 h, 10 µM: 91.4%

Structure (SMILES): Cc1ccc(N2C(=O)NC(=O)/C(=C\c3ccc(OCC(=O)O)c(Br)c3)C2=O)cc1C [CBK263899]
- viability at 28.5 h, 10 µM (bulk resorufin, single well): 84%

Structure (SMILES): O=C(O)COc1ccc(/C=N/n2cnnc2)cc1Cl [CBK263902]
- viability at 28.5 h, 10 µM: 99.3%

Structure (SMILES): CN(CC(=O)O)S(=O)(=O)c1ccc2c(c1)OCCO2 [CBK263904]
- viability at 28.5 h, 10 µM: 95.8%

Structure (SMILES): O=C(Cc1ccc(Cl)cc1)NC(=S)Nc1ccccc1O [CBK263905]
- viability at 28.5 h, 10 µM: 96.6%

Structure (SMILES): O=C(CSC1=NC(=O)C(Cc2ccccc2)C(=O)N1)Nc1ncccn1 (centres unmarked) [CBK263906]
- viability at 28.5 h, 10 µM: 120%

Structure (SMILES): COc1ccc(OCC(=O)Nc2ccc3oc(-c4ccc(OC)c(Br)c4)nc3c2)cc1 [CBK263913]
- viability at 28.5 h, 10 µM: 99.4%

Structure (SMILES): O=C(COC(=O)CN1C(=O)C(=O)c2ccccc21)Nc1cccc2ccccc12 [CBK263915]
- viability at 28.5 h, 10 µM: 90.5%

Structure (SMILES): CCC(Sc1nnc2c(n1)[nH]c1ccccc12)C(=O)Nc1sc2c(c1C#N)CCCC2 (centres unmarked) [CBK263917]
- viability at 28.5 h, 10 µM: 80.3%

Structure (SMILES): CCC1C(=O)N=C(SCC(=O)Nc2ncccn2)NC1=O (centres unmarked) [CBK263920]
- viability at 28.5 h, 10 µM: 94.6%

Structure (SMILES): COc1ccc2nc(N/C(N)=N/C(=O)COc3ccc(Cl)cc3)nc(C)c2c1 [CBK263924]
- viability at 28.5 h, 10 µM: 95%

Structure (SMILES): CC(C(=O)Nc1ccc2oc(-c3ccccc3)nc2c1)(c1ccccc1)c1ccccc1 [CBK263928]
- viability at 28.5 h, 10 µM: 91%

Structure (SMILES): Cc1cccnc1NC(=S)NC(=O)c1ccc([N+](=O)[O-])cc1 [CBK263931]
- viability at 28.5 h, 10 µM: 92.9%

Structure (SMILES): COc1cc(/C=N/NC(=O)CC#N)ccc1OCc1ccccc1Cl [CBK263932]
- viability at 28.5 h, 10 µM: 84.9%

Structure (SMILES): O=C(O)c1cccc(C(=O)c2cccc(C(=O)O)c2)c1 [CBK263933]
- viability at 28.5 h, 10 µM: 99.1%

Structure (SMILES): CC(=O)c1c(C(=O)O)[nH]c(C(=O)O)c1C [CBK263934]
- viability at 28.5 h, 10 µM: 87.4%

Structure (SMILES): Nc1ncnc2c1C(c1ccc(Cl)cc1)c1c(ccc3ccccc13)O2 (centres unmarked) [CBK263938]
- viability at 28.5 h, 10 µM: 101%

Structure (SMILES): O=C(O)c1cccc(Nc2nc(-c3ccccc3)nc3ccccc23)c1 [CBK263941C]
- viability at 28.5 h, 10 µM: 97.6%

Structure (SMILES): N=C1NC(=O)C(CC(=O)Nc2cccc([N+](=O)[O-])c2)S1 (centres unmarked) [CBK263944]
- viability at 28.5 h, 10 µM: 87.9%

Structure (SMILES): CC1(C)CC(NC(=O)c2cc([N+](=O)[O-])ccc2Cl)CC(C)(C)N1 [CBK263948]
- viability at 28.5 h, 10 µM: 93.7%

Structure (SMILES): CC(=O)Nc1cc(NC(=O)CCCC(=O)O)ccc1Cl [CBK263949]
- viability at 28.5 h, 10 µM: 73.3%

Structure (SMILES): CC1=NN(c2ccccc2)C(=O)/C1=C1/C(=O)Nc2c(C)cc(Br)cc21 [CBK263950]
- viability at 28.5 h, 10 µM: 92%

Structure (SMILES): O=C(O)/C=C\C(=O)Nc1cccc(NC(=O)c2cccs2)c1 [CBK263952]
- viability at 28.5 h, 10 µM: 85.7%

Structure (SMILES): CC(=O)Nc1ccccc1NC(=O)C(C)Oc1ccc(Cl)cc1Cl (centres unmarked) [CBK263954]
- viability at 28.5 h, 10 µM: 96.8%

Structure (SMILES): O=C(O)/C=C\C(=O)Nc1ccc(Cl)c(NC(=O)Cc2ccccc2)c1 [CBK263955]
- viability at 28.5 h, 10 µM: 93.7%

Structure (SMILES): Nc1c(Cl)cc(NC(=O)CCCC(=O)O)cc1Cl [CBK263957]
- viability at 28.5 h, 10 µM: 91%

Structure (SMILES): Cc1cccc(OCCOc2ccc(Br)cc2/C=C2\SC(=N)NC2=O)c1 [CBK263958]
- viability at 28.5 h, 10 µM: 102%

Structure (SMILES): O=C(Nc1cc(NC(=O)C2C3C=CC(C3)C2C(=O)O)ccc1Cl)c1cccs1 (centres unmarked) [CBK263959]
- viability at 28.5 h, 10 µM: 89.6%

Structure (SMILES): Cc1c(C)n(CC(O)CN2C(=O)c3ccccc3S2(=O)=O)c2ccccc12 (centres unmarked) [CBK263960]
- viability at 28.5 h, 10 µM: 88.2%

Structure (SMILES): O=C(O)CNC(=O)/C(=C\c1ccccc1F)NC(=O)c1ccccc1 [CBK263961]
- viability at 28.5 h, 10 µM: 96.5%

Structure (SMILES): O=C1CC(NCC2CCCO2)C(=O)N1c1ccc(N2C(=O)CC(NCC3CCCO3)C2=O)cc1 (centres unmarked) [CBK263962]
- viability at 28.5 h, 10 µM: 89.9%

Structure (SMILES): COc1ccc(C(=O)NC(c2ccco2)c2cc(Cl)c3cccnc3c2O)cc1 (centres unmarked) [CBK263964]
- viability at 28.5 h, 10 µM: 91.9%

Structure (SMILES): O=C(O)CNC(=O)/C(=C\c1ccco1)NC(=O)c1ccccc1Cl [CBK263967]
- viability at 28.5 h, 10 µM: 84.8%

Structure (SMILES): Cc1c(C)n(CC(O)CNCc2ccco2)c2ccccc12 (centres unmarked) [CBK263970G]
- viability at 28.5 h, 10 µM: 97%

Structure (SMILES): COc1cccc(C(=O)NC(c2ccc([N+](=O)[O-])cc2)c2c(O)ccc3ccccc23)c1 (centres unmarked) [CBK263971]
- viability at 28.5 h, 10 µM: 84.2%

Structure (SMILES): O=C(NC(=S)Nc1cccc(-c2nc3cc(Cl)ccc3o2)c1)c1ccccc1Br [CBK263973]
- viability at 28.5 h, 10 µM: 95.8%
